The values below come from article PMC3610371, “Subamolide B Isolated from Medicinal Plant Cinnamomum subavenium Induces Cytotoxicity in Human Cutaneous Squamous Cell Carcinoma Cells through Mitochondrial and CHOP-Dependent Cell Death Pathways” (Evidence-based Complementary and Alternative Medicine : eCAM, 2013).

Experiment [1] has as its system SCC12 cells. Put plainly: SCC12 cell viability after 24 h treatment (Supplementary Figure 3). Format: cell-based. The note with it: Homo sapiens. As to the method: The effect of subamolide B on cell viability was mostly evaluated using CellTiter 96 AQueous Non-Radioactive Cell Proliferation Assay (MTS assay) kit (Promega, Madison, WI, USA) as previously described. Alternatively, propidium iodide (PI) exclusion assay was employed to determine cell viability. In brief, 4 × 10^5 SCC12 cells were seeded onto 6-well dishes and were subjected to 48 h treatment with subamolide B. Cells were then trypsinized, collected by centrifugation, and washed twice with PBS. Subsequently, cells were stained with 10 μg/ml of PI in PBS for 15 min in the dark, followed by flow cytometry analysis to determine the levels of PI incorporation.
Supplementary Figure Legends (Yang et al.) […]
Supplementary Figure 3. SCC12 cells were resistant to imiquimod-induced cytotoxicity.
SCC12 cells were treated with increasing doses of subamolide B (0~20 µM) (A) or
imiquimod (0~50 µg/ml) (B) for 24 h, and the viability of imiquimod-treated cells was
evaluated thereafter. It is noted that 20 µM (6.897 µg/ml) of subamolide B reduced the
viability of SCC12 cells to 50.47±5.89% compared to the drug-untreated control, whereas
65.00±4.32% of SCC12 cells were still viable after treatment with 50 µg/ml of imiquimod.

Experiment [2] relates to ATF6 transcriptional activity. As to the kind of experiment: ATF6 transcriptional activity luciferase reporter assay (p5xATF6-GL3). It counts as cell-based. The conditions noted are these: Homo sapiens, SCC12 cells, 24 h, vs drug-untreated control. From the text: The ATF6 activity reporter plasmid p5xATF6-GL3 (Addgene plasmid 11976) carries five ATF6 response elements in tandem to drive the expression of firefly luciferase. The human CHOP promoter, which encompasses the region between −947 and +30 (+1 is the transcriptional start site) was PCR-amplified from the genomic DNA of peripheral blood mononuclear cells using the primer pair 5′-[…]-3′ (forward) and 5′-[…]-3′ (reverse). The 978-bp fragment was cloned into the luciferase reporter plasmid pGL4.18 vector (Promega, Madison, WI, USA) to generate the human CHOP promoter reporter plasmid (pCHOP-Luc). Luciferase activity assay was performed using Dual-Luciferase Reporter assay kit (Promega, Madison, WI, USA) as reported previously. Luciferase activity was normalized to Renilla luciferase activity, and final results were expressed as fold induction of the luciferase activity after subamolide B stimulation compared to that of drug-untreated control.
Figure 5 Subamolide B is an ER stress inducer. (a) Subamolide B upregulates signature ER stress markers GRP78 and CHOP. […] The level of CHOP mRNA in SCC12 cells after 24 h treatment with subamolide B (0~20 μM) was assessed by semiquantitative RT-PCR analysis. β-actin was used as the loading control. […] ATF6 transcriptional activity was then evaluated by luciferase activity assay. […]

Experiment [3] has as its system SCC12 cells. Put plainly: Annexin-V/propidium iodide dual staining assay (flow cytometry). Format: cell-based, human. The note with it: subamolide B 20 μM, 24 h. On the procedure: Annexin V/PI dual staining assay was employed to determine the involvement of apoptosis in subamolide B-induced cell death, using ApoTarget Annexin-V-FITC Apoptosis kit (Biosource, Camarillo, CA, USA) as described previously. If required, the pan-caspase inhibitor z-VAD-fmk (20 μM) was added to SCC12 cells 2 h before subamolide B treatment.
Figure 2 Apoptosis is partly responsible for subamolide B-induced SCC12 cell death. ((a), (b)) Subamolide B induces dose- and time-dependent proteolytic processing/activation of caspases-8, -9, -4, and -3. […] Subamolide B (20 μM) was used to treat SCC12 cells for 24 h without or with cotreatment of the pan-caspase inhibitor z-VAD-fmk (20 μM). […] The levels of apoptotic cells were indicated as the percentage of all cell populations as shown in (d). ***P < 0.001. […]

For experiment [4], the system named is MRC-5 normal lung fibroblasts. As to the kind of experiment: Cell viability determination via MTS assay, MRC-5. Format: cell-based. The conditions noted are these: Homo sapiens, MRC5; MRC-5, 48 h treatment; read-out: IC50 (reduce cell viability by 50%). As to the method: (§1) The human cutaneous squamous cell carcinoma cell line SCC12 (kindly provided by Prof. Xiaoqi Wang, Northwestern University, USA) was grown in DMEM/F-12 (1 : 1) medium. The human malignant melanoma cell line A375 (ATCC number: CRL-1619), human epidermoid carcinoma cell line A-431 (ATCC number: CRL-1555), and HEK293T cells (ATCC number: CRL-11268) were grown in DMEM medium, whereas the human basal cell carcinoma cell line BCC-1/KMC [25] was cultured in RPMI1640 medium. […]
(§2) The effect of subamolide B on cell viability was mostly evaluated using CellTiter 96 AQueous Non-Radioactive Cell Proliferation Assay (MTS assay) kit (Promega, Madison, WI, USA) as previously described. […]
(§3) Figure 1 Cytotoxic effect of subamolide B on human skin cancer cell lines. […] 14 days later, the extent of subamolide B-mediated repression of SCC12 colony formation was evaluated by the numbers of colonies grown on culture dishes. […] (c) Quantitative analysis of subamolide B-mediated repression of SCC12 colony formation. The numbers of colonies shown in (b) were counted and the results were presented as the percentage of drug-treated groups compared to the drug-free controls. ***P < 0.001.

Experiment [5] relates to IMR-90 normal lung fibroblasts. Put plainly: Cell viability determination via MTS assay, IMR-90. Format: cell-based. The note with it: Homo sapiens; IMR-90, 48 h treatment; read-out: IC50 (reduce cell viability by 50%). On the procedure:
as §1, §2, §3

For experiment [6], the system named is A-431 (epidermoid carcinoma) cells. Put plainly: Cell viability determination via MTS assay, A-431. Format: cell-based. The note with it: Homo sapiens; A-431, 48 h treatment; read-out: IC50 (reduce cell viability by 50%). As to the method: as §1, §2, §3
The subject of experiment [7] is BCC-1/KMC (basal cell carcinoma) cells. Put plainly: Cell viability determination via MTS assay, BCC-1/KMC. Format: cell-based. The conditions noted are these: Homo sapiens, BCC1, 48 h treatment, read-out: IC50 (reduce cell viability by 50%). As to the method: as §1, §2, §3
For experiment [8], the system named is CCD-966SK normal skin fibroblasts. As to the kind of experiment: Cell viability determination via MTS assay, CCD-966SK. The conditions noted are these: Homo sapiens, Skin fibroblast, 48 h treatment, read-out: IC50 (reduce cell viability by 50%). It counts as cell-based. As to the method:
as §1, §2, §3

Experiment [9] relates to WI-38 normal lung fibroblasts. As to the kind of experiment: Cell viability determination via MTS assay, WI-38. It counts as cell-based. The conditions noted are these: Homo sapiens; WI-38, 48 h treatment; read-out: IC50 (reduce cell viability by 50%). On the procedure: as §1, §2, §3
In experiment [10] the test system is A375 (melanoma) cells. Put plainly: Cell viability determination via MTS assay, A375. The conditions noted are these: Homo sapiens, A-375; A375, 48 h treatment; read-out: IC50 (reduce cell viability by 50%). Format: cell-based. On the procedure:
as §1, §2, §3

The subject of experiment [11] is SCC12 cells. As to the kind of experiment: Colony formation assay. Format: cell-based, human. The conditions noted are these: 24 h treatment, then drug-free media 14 days. On the procedure:
The effect of subamolide B on the long-term survival of SCC12 cells was assessed using colony formation assay in accordance with the reported procedure. […] […] The colonies composed of 50 or more cells were counted under microscopy. At least three independent assays were performed to calculate the numbers of colonies for statistical analysis.
Figure 1 Cytotoxic effect of subamolide B on human skin cancer cell lines. (a) Dose-dependent cytotoxicity of subamolide B. Human skin cancer cell lines, including A375 (melanoma), A-431 (epidermoid carcinoma), BCC-1/KMC (basal cell carcinoma) and SCC12 (cutaneous squamous cell carcinoma), normal human skin fibroblast cell lines CCD-966SK and WS1, and normal human lung fibroblast cell lines IMR-90, MRC-5, and WI-38 were treated with graded doses of subamolide B (0~20 μM), followed by cell viability determination via MTS assay as described in Section 2. […] 14 days later, the extent of subamolide B-mediated repression of SCC12 colony formation was evaluated by the numbers of colonies grown on culture dishes. […] (c) Quantitative analysis of subamolide B-mediated repression of SCC12 colony formation. The numbers of colonies shown in (b) were counted and the results were presented as the percentage of drug-treated groups compared to the drug-free controls. ***P < 0.001.

In experiment [12] the test system is SCC12 (cutaneous squamous cell carcinoma) cells. As to the kind of experiment: Cell viability determination via MTS assay, SCC12. Format: cell-based. The conditions noted are these: Homo sapiens; SCC12, 48 h treatment; read-out: IC50 (reduce cell viability by 50%). On the procedure: as §1, §2, §3
The test system of experiment [13] is WS1 normal skin fibroblasts. Put plainly: Cell viability determination via MTS assay, WS1. Format: cell-based. The note with it: Homo sapiens, Skin fibroblast; WS1, 48 h treatment; read-out: IC50 (reduce cell viability by 50%). As to the method:
as §1, §2, §3

Values joined by “and” are separate entries in the source; they are usually repeats but may differ in a detail not shown here. Identical values can stand only once.

Consider `CC(C)Cn1cnc2c(N)nc3ccccc3c21` [imiquimod, reference compound], for which the viability at 50 µg/mL in [1] (SCC12, imiquimod 50 μg/ml, 24 h, read-out: SCC12 cell viability, % of the drug-untreated control) amounted to 65 ± 4.32%.

`CCCCCCCCCCCCC/C=C1/C(=O)O[C@@](C)(OC)[C@@H]1O` [subamolide B, (3E,4R,5R)-3-tetradecylidene-4-hydroxy-5-methoxy-5-methyl-butanolide] showed a fold induction at 10 µM in experiment [2] of 16.1 ± 2.06. Further, the results for the “level of apoptotic cells (percentage of all cell populations)” value in experiment [3] (cotreated with z-VAD-fmk 20 μM) and in [3] (without z-VAD-fmk) were 18.6 ± 0.42% and 32.55 ± 3.65%, respectively. Moreover, the half-maximal inhibitory concentration (IC50) is > 20 µM in experiment [4]; > 20 µM in experiment [5]; 13.3 µM in experiment [6]; > 20 µM in experiment [7]; > 20 µM in experiment [8]; > 20 µM in experiment [9]. Besides, the half-maximal inhibitory concentration (IC50) is 17.6 µM in experiment [10]; 9.12 µM in experiment [12]; > 20 µM in experiment [13]; 6.9 µg/mL and 20.3 µM in experiment [1] (SCC12, 24 h treatment, read-out: IC50 (SCC12 cytotoxicity)). Also, the “SCC12 colony formation, % of the drug-untreated control” value in experiment [11] (10 μM) turned out to be 58.93 ± 2.40%; in experiment [11] (20 μM) it was 28.20 ± 10.87%. The viability at 20 µM in experiment [1] (SCC12, subamolide B 20 μM (6.897 μg/ml), 24 h, read-out: SCC12 cell viability, % of the drug-untreated control) is 50.5 ± 5.89%.
